Experimental data taken from patent US20190374627A1, “TARGET PEPTIDES FOR CANCER THERAPY AND DIAGNOSTICS” (priority 2016, published 2019).
Square brackets hold non-standard residues; d marks the D form. Ends that are not written are not given here. pT = C[C@@H](OP(=O)(O)O)[C@H](N)C(=O)O; pS = N[C@@H](COP(=O)(O)O)C(=O)O

What was measured:
[1] = test system: unexpanded lymphocyte cultures (CD8^+ T cells); experiment: ICS for MHC-I-pP reactivity of lymphocyte cultures without expansion (Table 23, No Expansion); details: HH6
[2] = test system: expanded lymphocyte cultures from deceased donor livers, cirrhotic livers and HCC; experiment: ICS for MHC-I-pP reactivity of liver-derived lymphocyte cultures after phosphopeptide-specific expansion; format: cell-based, human; details: for ppCTL response, HCC Distal HCC 1: HCC 1 Distal; for ppCTL response, HCC Tumor HCC 1: HCC 1 Tumor; for ppCTL response, HCC Distal HCC 4: HCC 4 Distal
CD8^+ T cells (PBMCs) = experiment: Intracellular cytokine staining (ICS) of PBMCs after 7 days of stimulation with MHC-I-pP (healthy donors, HH patients); format: cell-based, human; details: for Reactive CD8^+ T cell population, HH2: HH patient HH2; for Reactive CD8^+ T cell population, HH3: HH patient HH3; for Reactive CD8^+ T cell population, HH8: HH patient HH8
Protocol: From this, CD8^+ T cell responses against newly identified MHC class I-associated phosphopeptides in healthy individuals and patients with chronic liver disease were investigated. Twenty-one of the newly identified HCC-associated HLA-A*0201-restricted phosphopeptides were selected (see Table 17) for further immunological testing in HLA-A*0201 positive patients. MHC-I-pP-specific cytotoxic CD8^+ T cell responses (ppCTL) were assessed using intracellular cytokine staining (ICS) and several cytokines and surface markers were assessed in parallel. After 7 days of stimulation with the respective MHC-I-pP and no other cytokines, CD3- and CD8-expressing T cells were stained for at least two different cytokines (IFN-γ, TNF-α) and when required CD107a expression as a marker for their cytotoxic potential.
First, peripheral blood mononuclear cells (PBMCs) from healthy donors and patients with hereditary hemochromatosis (HH) were analyzed. HH is a chronic liver disease characterized by excessive intestinal absorption of dietary iron resulting in a pathological deposition of iron in the liver. PBMCs or lymphocytes from liver tissue were extracted and specifically stimulated with (phospho-) peptides for 7 days before intracellular cytokine staining (ICS). Doublets and dead cells, using a fixable viability dye, were excluded. Lymphocytes were gated on CD3^+ and CD8^+ double positive cells and were analysed for expression of IFNγ, TNFα-, and CD107a.

[3] = test system: expanded TIL / IHL cultures; experiment: ICS for MHC-I-pP reactivity of liver-derived lymphocyte cultures after unspecific rapid expansion protocol (REP); format: cell-based, human
[4] = pP-specifically expanded culture

Substance | Reactive CD8^+ T cells, No Expansion, HH6 [1] | Reactive CD8^+ T cells, pP-specific Expansion, Do2 [2] | Reactive CD8^+ T cells, pP-specific Expansion, Do4 [2] | Reactive CD8^+ T cells, pP-specific Expansion, HH6 [2] | ppCTL response, Deceased Donor Liver Do 2 [2, 4] | ppCTL response, Deceased Donor Liver Do 3 [2, 4] | ppCTL response, Deceased Donor Liver Do 4 [2, 4] | ppCTL response, Deceased Donor Liver Do 6 [2, 4] | ppCTL response, End-stage Liver Cirrhosis IHL 11 [2, 4] | ppCTL response, End-stage Liver Cirrhosis IHL 13 [2, 4] | ppCTL response, HCC Distal HCC 1 [2, 4] | ppCTL response, HCC Tumor HCC 1 [2, 4] | ppCTL response, HCC Distal HCC 4 [2, 4] | Reactive CD8^+ T cell population, HH2 (CD8^+ T cells (PBMCs)) | Reactive CD8^+ T cell population, HH3 (CD8^+ T cells (PBMCs)) | Reactive CD8^+ T cell population, HH8 (CD8^+ T cells (PBMCs)) | further results
RLFsKELRC: TAF13 phosphopeptide, HLA-A*0201 (RLF[pS]KELRC; listed as Homo sapiens) | 0 (<0.25% reactive CD8^-+ T cells) | 0 (<0.25% reactive CD8^-+ T cells) | 0 (<0.25% reactive CD8^-+ T cells) | 0 (<0.25% reactive CD8^-+ T cells) | 1 (0.25-2.5% reactive CD8-+ T cells) | 0 (<0.25% reactive CD8-+ T cells) | 0 (<0.25% reactive CD8-+ T cells) | 0 (<0.25% reactive CD8-+ T cells) | 0 (<0.25% reactive CD8-+ T cells) | 0 (<0.25% reactive CD8-+ T cells) | 0 (<0.25% reactive CD8-+ T cells) | 0 (<0.25% reactive CD8-+ T cells) | 0 (<0.25% reactive CD8-+ T cells) | 2 (2.5-5.0% reactive CD8^-+ T cells) | 0 (<0.25% reactive CD8^-+ T cells) | 0 (<0.25% reactive CD8^-+ T cells) | –
RLAsYLDRV: KRT18 phosphopeptide, HLA-A*0201 (RLA[pS]YLDRV; listed as Homo sapiens) | 0 (<0.25% reactive CD8^-+ T cells) | 0 (<0.25% reactive CD8^-+ T cells) | 0 (<0.25% reactive CD8^-+ T cells) | 0 (<0.25% reactive CD8^-+ T cells) | 0 (<0.25% reactive CD8-+ T cells) | 0 (<0.25% reactive CD8-+ T cells) | 0 (<0.25% reactive CD8-+ T cells) | 0 (<0.25% reactive CD8-+ T cells) | 0 (<0.25% reactive CD8-+ T cells) | 0 (<0.25% reactive CD8-+ T cells) | 0 (<0.25% reactive CD8-+ T cells) | 0 (<0.25% reactive CD8-+ T cells) | 0 (<0.25% reactive CD8-+ T cells) | 3 (5-7.5% reactive CD8^-+ T cells) | 0 (<0.25% reactive CD8^-+ T cells) | 0 (<0.25% reactive CD8^-+ T cells) | ppCTL response, End-stage Liver Cirrhosis IHL 12 ([2]; pP-specifically expanded culture, End-stage Liver Cirrhosis IHL 12): 0 (<0.25% reactive CD8-+ T cells); ppCTL response, End-stage Liver Cirrhosis IHL 15 ([2]; pP-specifically expanded culture, End-stage Liver Cirrhosis IHL 15): 0 (<0.25% reactive CD8-+ T cells); ppCTL response, HCC Distal HCC 9 ([2]; pP-specifically expanded culture, HCC 9 Distal): 0 (<0.25% reactive CD8-+ T cells); ppCTL response, HCC Tumor HCC 9 ([2]; pP-specifically expanded culture, HCC 9 Tumor): 0 (<0.25% reactive CD8-+ T cells); ppCTL response, HCC Distal HCC 12 ([2]; pP-specifically expanded culture, HCC 12 Distal): 0 (<0.25% reactive CD8-+ T cells); Reactive CD8^+ T cell population, HH6 (CD8^+ T cells (PBMCs); HH patient HH6): 0 (<0.25% reactive CD8^-+ T cells); Reactive CD8^+ T cell population, HD1 (CD8^+ T cells (PBMCs); Healthy donor HD1): 0 (<0.25% reactive CD8^-+ T cells); Reactive CD8^+ T cell population, HD4 (CD8^+ T cells (PBMCs); Healthy donor HD4): 0 (<0.25% reactive CD8^-+ T cells); Reactive CD8^+ T cell population, HD5 (CD8^+ T cells (PBMCs); Healthy donor HD5): 0 (<0.25% reactive CD8^-+ T cells); Reactive CD8^+ T cells, Non-specific Expansion, Do2 ([3]; Do2): 0 (<0.25% reactive CD8^-+ T cells); Reactive CD8^+ T cells, Non-specific Expansion, Do4 ([3]; Do4): 0 (<0.25% reactive CD8^-+ T cells); Reactive CD8^+ T cells, Non-specific Expansion, HH6 ([3]; HH6): 1 (0.25-2.5% reactive CD8^-+ T cells)
KLFPDtPLAL: ILF3 phosphopeptide, HLA-A*0201 (KLFPD[pT]PLAL; listed as Homo sapiens) | 0 (<0.25% reactive CD8^-+ T cells) | 0 (<0.25% reactive CD8^-+ T cells) | 0 (<0.25% reactive CD8^-+ T cells) | 0 (<0.25% reactive CD8^-+ T cells) | 0 (<0.25% reactive CD8-+ T cells) | 0 (<0.25% reactive CD8-+ T cells) | 0 (<0.25% reactive CD8-+ T cells) | 0 (<0.25% reactive CD8-+ T cells) | 0 (<0.25% reactive CD8-+ T cells) | 0 (<0.25% reactive CD8-+ T cells) | 0 (<0.25% reactive CD8-+ T cells) | 0 (<0.25% reactive CD8-+ T cells) | 0 (<0.25% reactive CD8-+ T cells) | 0 (<0.25% reactive CD8^-+ T cells) | 0 (<0.25% reactive CD8^-+ T cells) | 0 (<0.25% reactive CD8^-+ T cells) | Reactive CD8^+ T cell population, HH11 (CD8^+ T cells (PBMCs); HH patient HH11): 0 (<0.25% reactive CD8^-+ T cells)
